Source: patent publication US6737256B2, “Overcoming DAPA aminotransferase bottlenecks in biotin vitamers biosynthesis” (Roche Vitamins Inc., priority 1997, dated 2004)
Where two headings read alike, the source gives them in different places.

Experiments:
[1] = molecular target: T1, B. subtilis DAPA aminotransferase (Bacillus subtilis, UniProt P53555); format: biochemical; conditions: for DAPA aminotransferase specfic activity: compound added to extract of BI611; for function as amino donor with the B. subtilis enzyme / stimulation of DAPA aminotransferase activity: result in words; for stimulation of DAPA aminotransferase activity: dialyzed BI611 extract
T1 construct: A cell free extract prepared from a B. subtilis strain deleted for the bio operon but containing multiple copies (4-6) of the B. subtilis bioA gene; made in house; host or cells: B. subtilis BI611 (Δbio:cat, bpr:[P26bioA]4-6), cell-free extract (dialyzed for A1, crude for A2)
T1 sequence (P53555 1-448): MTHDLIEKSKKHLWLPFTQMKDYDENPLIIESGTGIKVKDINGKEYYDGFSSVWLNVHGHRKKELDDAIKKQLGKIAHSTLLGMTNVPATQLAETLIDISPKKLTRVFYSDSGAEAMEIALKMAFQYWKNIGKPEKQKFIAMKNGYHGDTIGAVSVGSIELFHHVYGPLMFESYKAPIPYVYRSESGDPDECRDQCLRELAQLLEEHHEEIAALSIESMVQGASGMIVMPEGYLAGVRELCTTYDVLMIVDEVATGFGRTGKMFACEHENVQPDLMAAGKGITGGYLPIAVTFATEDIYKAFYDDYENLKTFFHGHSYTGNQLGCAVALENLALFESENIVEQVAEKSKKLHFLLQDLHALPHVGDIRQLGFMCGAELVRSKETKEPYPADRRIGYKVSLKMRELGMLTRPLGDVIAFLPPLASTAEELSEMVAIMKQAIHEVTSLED
Description: The assay for DAPA aminotransferase is described by Eisenberg and Stoner in 1971 (J. Bacteriol. 108:1135-1140). In this assay, the substrate KAPA is incubated with S-adenosylmethionine (SAM) in the presence of the cofactor pyridoxal 5′-phosphate and cell extract. We measured the amount of DAPA produced in a plate bioassay utilizing an E. coli bioA strain. Streptavidin (8 μg/ml) was added to the assay mix because extracts of many of the strains to be assayed contained significant amounts of biotin and dethiobiotin which fed the E. coli indicator strain used in the bioassay. Contamination by trace amounts of biotin and dethiobiotin was also removed from the KAPA preparation used as substrate by passing the material over an avidin-agarose column. The E. coli bioA109 strain (MEC1) was used to measure DAPA aminotransferase activity in the bioassay. […] Eisenberg's DAPA-sensitive strain was obtained from the E. coli Genetic Stock Center at Yale University.
To determine whether B. subtilis DAPA aminotransferase activity could be stimulated by addition of other amino donors to the reaction mix, various amino donors were screened for their ability to stimulate enzyme activity in vitro. A cell free extract prepared from a B. subtilis strain deleted for the bio operon but containing multiple copies (4-6) of the B. subtilis bioA gene transcribed from a phage SP01-26 promoter with the cassette integrated at the bpr locus, BI611 (Δbio:cat, bpr:[P26bioA]4-6), was dialyzed to remove any endogenous levels of the amino donor and the extract was assayed in the presence of each of the standard amino acids and several other amine compounds. […] In a subsequent experiment, various lysine derivatives and analogs were tested for stimulation of activity (Table 2). […] The structure of (S)-2-aminoethyl-L-cysteine is identical to L-lysine except that the γ carbon has been replaced by a sulfur atom.

[2] = molecular target: T2, E. coli DAPA aminotransferase (Escherichia coli, UniProt P12995); conditions: cited from earlier work; for Km: Stoner and Eisenberg 1975
T2 sequence (P12995 whole entry): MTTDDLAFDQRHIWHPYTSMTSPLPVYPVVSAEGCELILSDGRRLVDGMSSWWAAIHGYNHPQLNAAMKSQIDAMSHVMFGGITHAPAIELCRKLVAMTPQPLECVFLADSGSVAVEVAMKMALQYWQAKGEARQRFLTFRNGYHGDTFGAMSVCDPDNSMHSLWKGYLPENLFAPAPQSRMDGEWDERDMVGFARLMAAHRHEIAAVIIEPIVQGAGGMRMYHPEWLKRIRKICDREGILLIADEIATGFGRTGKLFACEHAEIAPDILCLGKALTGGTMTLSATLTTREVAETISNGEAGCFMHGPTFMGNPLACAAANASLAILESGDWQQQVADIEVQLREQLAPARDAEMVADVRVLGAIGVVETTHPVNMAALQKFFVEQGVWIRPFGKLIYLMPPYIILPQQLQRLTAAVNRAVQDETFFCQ

[3] = molecular target: T1, B. subtilis DAPA aminotransferase; assay: Kinetic studies of B. subtilis DAPA aminotransferase (crude cell-free extract of BI611); format: biochemical; conditions: for Km: crude cell-free extract of BI611
Description: (§1) The assay for DAPA aminotransferase is described by Eisenberg and Stoner in 1971 (J. Bacteriol. 108:1135-1140). In this assay, the substrate KAPA is incubated with S-adenosylmethionine (SAM) in the presence of the cofactor pyridoxal 5′-phosphate and cell extract. We measured the amount of DAPA produced in a plate bioassay utilizing an E. coli bioA strain. Streptavidin (8 μg/ml) was added to the assay mix because extracts of many of the strains to be assayed contained significant amounts of biotin and dethiobiotin which fed the E. coli indicator strain used in the bioassay. Contamination by trace amounts of biotin and dethiobiotin was also removed from the KAPA preparation used as substrate by passing the material over an avidin-agarose column. The E. coli bioA109 strain (MEC1) was used to measure DAPA aminotransferase activity in the bioassay. This E.coli bioA strain, developed for the assay by Eisenberg, was reported to be many times more sensitive to DAPA than any other bioA mutant. Eisenberg's DAPA-sensitive strain was obtained from the E. coli Genetic Stock Center at Yale University.
The kinetic properties of B. subtilis DAPA aminotransferase were investigated using a crude cell-free extract prepared from BI611 (Δbio:cat, bpr:[P26bioA]4-6). […] The conversion of substrate to product was approximately 10 to 40% in 20 minutes. […] The pH optimum for the transamination reaction was determined to be pH 8.6. […] The […] enzyme was subject to inhibition by KAPA at levels above 20 μM. […] The enzyme became saturated for lysine at concentrations between 20 and 40 mM.
The substrate inhibition of B. subtilis DAPA aminotransferase by KAPA provides evidence for a double displacement or ping-pong reaction mechanism, as has been shown for E.coli DAPA aminotransferase (Stoner et al., J. Biol. Chem. 250:4037-4043, 1975). KAPA concentration was varied at four different fixed lysine concentrations, and initial velocity data was collected and plotted in a double reciprocal form. […]

[4] = molecular target: T2, E. coli DAPA aminotransferase; assay: DAPA aminotransferase assay of extracts of B. subtilis strains containing E. coli bioA; format: biochemical; conditions: strains lacking native bioA, with E. coli bioA
Description: as §1
(§2) The enzyme reaction was approximately linear with time for at least 60 minutes. […] Enzyme activity was destroyed by boiling the extract, or freezing and thawing, although freezing the extract in the presence of 10% DMSO appeared to stabilize the enzyme. […]

[5] = molecular target: T3, S. marcescens DAPA aminotransferase (Serratia marcescens, UniProt P36568); assay: DAPA aminotransferase assay of extracts of B. subtilis strains containing S. marcescens bioA; format: biochemical; conditions: strains lacking native bioA, with S. marcescens bioA
T3 construct: made in house; host or cells: B. subtilis strain lacking the native bioA gene, carrying S. marcescens bioA; cell extract
T3 sequence (P36568 whole entry): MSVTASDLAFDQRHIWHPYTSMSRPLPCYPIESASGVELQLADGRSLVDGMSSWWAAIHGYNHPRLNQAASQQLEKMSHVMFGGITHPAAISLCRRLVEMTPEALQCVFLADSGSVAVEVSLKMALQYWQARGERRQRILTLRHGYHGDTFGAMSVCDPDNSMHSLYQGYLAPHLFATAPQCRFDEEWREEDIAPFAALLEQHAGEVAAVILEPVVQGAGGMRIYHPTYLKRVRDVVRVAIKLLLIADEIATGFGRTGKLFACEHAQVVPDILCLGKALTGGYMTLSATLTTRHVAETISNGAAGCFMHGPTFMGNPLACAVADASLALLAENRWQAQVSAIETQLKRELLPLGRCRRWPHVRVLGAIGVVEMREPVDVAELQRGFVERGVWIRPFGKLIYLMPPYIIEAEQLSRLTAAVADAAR
Description: as §1, §2

[6] = molecular target: T1, B. subtilis DAPA aminotransferase; assay: DAPA aminotransferase assay of BI282 extract, dependence on SAM; format: biochemical
Description: as §1
A B. subtilis strain, BI282, engineered to overexpress B. subtilis BioA protein was assayed for DAPA aminotransferase activity: BI282 contains a P15 bio cassette amplified at the bio locus (described in Patent Application 0635572A2). […]

[7] = tested on: B. subtilis strains, PY79, BI282, and BI603; assay: Sensitivity of B. subtilis strains to lysine analogs on minimal medium; format: cell-based; conditions: minimal medium with no additive, with threonine, or with DAP plus threonine
Description: Three out of the four classical cases of lysine deregulated mutants were isolated by selecting for lysine analog resistance. B. subtilis strains, PY79 (Youngman et al., Plasmid 12:1-9, 1984), BI282, and BI603 were tested for sensitivity to four lysine analogs, on minimal medium with no additive, with threonine, or with DAP plus threonine. The purpose of the additives was to focus the selection on the lysC gene, that encodes the lysine sensitive aspartokinase II. […] All three strains behaved similarly; all were sensitive to AEC in all three media.

Compound: NCCCCC(N)C(=O)O (racemic) [DL-lysine (>98%), DL-lysine]
- DAPA aminotransferase specfic activity [1]: 0.35 nmol/min/mg

Compound: NCCCC[C@@H](N)C(=O)O [D-lysine]
- DAPA aminotransferase specfic activity [1]: 0.19 nmol/min/mg
- function as amino donor with the B. subtilis enzyme [1]: function as amino donors

Compound: CC(N)C(=O)CCCCCC(=O)O (stereo not shown) [KAPA, 8-amino-7-ketopelargonic acid]
- KAPA level above which enzyme was subject to inhibition ([2]; Eisenberg and Stoner 1971): above 20 μM
- Km ([2]; read-out: Km for KAPA): 1.2 µM
- Km ([3]; read-out: apparent Km for KAPA): 1 to 5 µM
- KAPA concentration above which inhibition of activity was observed ([3]; lysine constant at 19 mM): above 80 μM

Compound: NCCCC[C@H](N)C(=O)O [L-lysine]
- Km ([3]; read-out: apparent Km for lysine): 2000 to 25000 µM
- DAPA aminotransferase specfic activity ([1]; listed as L-lysine (>98%)): 0.76 nmol/min/mg
- DAPA aminotransferase specfic activity ([1]; listed as L-lysine (>99%)): 0.56 nmol/min/mg
- function as amino donor with the B. subtilis enzyme [1]: function as amino donors
- stimulation of DAPA aminotransferase activity ([1]; listed as L-lysine hydrochloride): stimulated DAPA aminotransferase activity
- stimulation of DAPA aminotransferase activity ([1]; listed as L-lysine(>99% pure)): stimulate activity

Compound: CC(=O)N[C@@H](CCCCN)C(=O)O [Nα-acetyl-L-lysine]
- DAPA aminotransferase specfic activity [1]: 0 nmol/min/mg

Compound: CC(=O)NCCCC[C@H](N)C(=O)O [Nε-acetyl-L-lysine]
- DAPA aminotransferase specfic activity [1]: 0 nmol/min/mg

Compound: CNCCCC[C@H](N)C(=O)O [Nε-methyl-L-lysine]
- DAPA aminotransferase specfic activity [1]: 0 nmol/min/mg

Compound: C[S+](CC[C@H](N)C(=O)O)C[C@H]1O[C@@H](n2cnc3c(N)ncnc32)[C@H](O)[C@@H]1O (stereo partly shown) [SAM, S-adenosylmethionine]
- dependence of enzyme activity on presence of SAM [4]: dependent on the presence of exogenous SAM
- Km ([2]; purified E. coli enzyme, read-out: Km for SAM): 200 µM
- dependence of enzyme activity on presence of SAM [5]: dependent on the presence of exogenous SAM
- function as amino donor with the B. subtilis enzyme [1]: not a significant amino donor
- dependence of enzyme activity on presence of SAM [6]: not dependent on the presence of SAM

Compound: N[C@H](CCC[C@H](N)C(=O)O)C(=O)O [diaminopimelic acid]
- DAPA aminotransferase specfic activity [1]: 0 nmol/min/mg

Compound: (S)-2-aminoethyl-L-cysteine
- inhibition of growth [7]: inhibited growth
- DAPA aminotransferase specfic activity [1]: 0.48 nmol/min/mg
- function as amino donor with the B. subtilis enzyme [1]: function as amino donors
- stimulation of DAPA aminotransferase activity [1]: stimulate activity

Compound: gly-lys
- DAPA aminotransferase specfic activity [1]: 0 nmol/min/mg

Compound: lys-gly
- DAPA aminotransferase specfic activity [1]: 0 nmol/min/mg
